# Reference: paper PMC4319847 (PLoS ONE, 2015)
# No end group written: not given here.
# Target: T1, ΔIBB-h-importin-α1 (Homo sapiens, UniProt P52292, DEL11-54)
# T1 construct: IBB domain-truncated h-importin-α1 (Δ-h-importin-α1) (1–10, 55–529); GST (N, cleaved yes); His6 (C); made in house; host or cells: E. coli BL21 (DE3) Codonplus-RIL
# Assay: ITC binding of NLS peptides to ΔIBB-h-importin-α1
sequence,measurement,value
KRPAATKKAGQAKKKK [nucleoplasmin NLS],Kd,140 ± 50 nM
